Where two headings read alike, the source gives them in different places.
Biological target: T1, mu opiate receptor (MOR) (Rattus norvegicus, UniProt P33535)
T1 construct: from tissue; host or cells: striatum (membrane preparation)
Assay type: biochemical
Conditions: for [35S]GTPγS binding, FLNA-Binding Compound as Agonist at 0.1 μM: 0.1 μM compound; for [35S]GTPγS binding, FLNA-Binding Compound as Agonist at 0.1 μM / [35S]GTPγS binding, FLNA-Binding Compound as Agonist at 1 μM: striatal membranes; for [35S]GTPγS binding, FLNA-Binding Compound as Agonist at 0.1 μM / [35S]GTPγS binding, FLNA-Binding Compound as Agonist at 1 μM + BFNA / [35S]GTPγS binding, FLNA-Binding Compound as Agonist at 1 μM: Series C-2; for [35S]GTPγS binding, FLNA-Binding Compound as Agonist at 1 μM + BFNA: 1 μM compound + 1 μM β-FNA (selective MOR antagonist); for [35S]GTPγS binding, FLNA-Binding Compound as Agonist at 1 μM: 1 μM compound

[1] = [35S]GTPγS binding to Gαo in striatal membranes, compound 0.1 μM
[2] = [35S]GTPγS binding to Gαo in striatal membranes, compound 1 μM
[3] = [35S]GTPγS binding to Gαo in striatal membranes, compound 1 μM plus 1 μM β-funaltrexamine (MOR antagonist)

T1 sequence (P33535 whole entry): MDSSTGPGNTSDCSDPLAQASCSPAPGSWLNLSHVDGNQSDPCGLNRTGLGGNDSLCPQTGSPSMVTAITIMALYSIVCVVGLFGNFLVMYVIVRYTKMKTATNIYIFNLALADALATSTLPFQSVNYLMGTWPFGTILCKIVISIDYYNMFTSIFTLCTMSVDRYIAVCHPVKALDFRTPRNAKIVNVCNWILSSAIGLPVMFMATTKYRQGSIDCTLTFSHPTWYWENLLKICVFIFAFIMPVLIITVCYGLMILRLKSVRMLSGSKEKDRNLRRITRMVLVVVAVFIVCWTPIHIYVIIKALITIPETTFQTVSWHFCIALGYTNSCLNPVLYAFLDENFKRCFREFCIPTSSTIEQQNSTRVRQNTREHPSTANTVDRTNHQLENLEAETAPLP

## N#Cc1ccccc1S(=O)(=O)N1CCC2(CC1)OCCN2S(=O)(=O)c1ccccc1C#N [Compound C0004]
  % DAMGO (0.1 μM): 72.1%
  % DAMGO (1 μM): 85.4%
  % DAMGO + BFNA: 99.7%
[1]
  Concentration of FLNA-Binding Compound as Agonist 0.1 μM: 122.0%
[2]
  Concentration of FLNA-Binding Compound as Agonist 1 μM: 228.4%
[3]
  Concentration of FLNA-Binding Compound as Agonist 1 μM + BFNA: 65.8%

## COc1ccc(CCC(=O)CC2c3c(cc4c(c3OC)OCO4)CCN2C)cc1 (stereo not drawn) [Compound B0047]
  % DAMGO (0.1 μM): 106.3%
  % DAMGO (1 μM): 92.6%
  % DAMGO + BFNA: 260.1%
[1]
  Concentration of FLNA-Binding Compound as Agonist 0.1 μM: 187.8%
[2]
  Concentration of FLNA-Binding Compound as Agonist 1 μM: 235.6%
[3]
  Concentration of FLNA-Binding Compound as Agonist 1 μM + BFNA: 68.4%

## O=C1CN(Cc2ccccc2)C2(CCN(S(=O)(=O)c3cc(Cl)cc(Cl)c3O)CC2)N1 [Compound C0138M]
  % DAMGO (0.1 μM): 86.3%
  % DAMGO (1 μM): 90.9%
  % DAMGO + BFNA: 131.0%
[1]
  Concentration of FLNA-Binding Compound as Agonist 0.1 μM: 126.9%
[2]
  Concentration of FLNA-Binding Compound as Agonist 1 μM: 183.9%
[3]
  Concentration of FLNA-Binding Compound as Agonist 1 μM + BFNA: 51.5%

## O=S(=O)(c1ccccc1)N1CCC2(CC1)OCCN2S(=O)(=O)c1ccccc1 [Compound C0016]
  % DAMGO (0.1 μM): 100.4%
  % DAMGO (1 μM): 83.3%
  % DAMGO + BFNA: 150.9%
[1]
  Concentration of FLNA-Binding Compound as Agonist 0.1 μM: 172.7%
[2]
  Concentration of FLNA-Binding Compound as Agonist 1 μM: 230.5%
[3]
  Concentration of FLNA-Binding Compound as Agonist 1 μM + BFNA: 96.7%

## O=C1CN(Cc2ccccc2)C2(CCN(C3CCCCC3)CC2)N1 [C0137M (P7)]
  % DAMGO (0.1 μM): 95.6%
  % DAMGO (1 μM): 78.1%
  % DAMGO + BFNA: 115.1%
  [35S]GTPγS binding, FLNA-Binding Compound as Agonist at 0.1 μM: 180.8%
  [35S]GTPγS binding, FLNA-Binding Compound as Agonist at 1 μM + BFNA: 55.8%
  [35S]GTPγS binding, FLNA-Binding Compound as Agonist at 1 μM: 193.8%

## CC1CCC(C(C)C)C(OCC(O)CN2CC(C)CC(C)C2)C1 (stereo not drawn) [Compound A0008]
  % DAMGO (0.1 μM): 109.6%
  % DAMGO (1 μM): 102.1%
  % DAMGO + BFNA: 505.3%
[1]
  Concentration of FLNA-Binding Compound as Agonist 0.1 μM: 163.8%
[2]
  Concentration of FLNA-Binding Compound as Agonist 1 μM: 235.0%
[3]
  Concentration of FLNA-Binding Compound as Agonist 1 μM + BFNA: 133.9%

## CC(=O)c1ccc(S(=O)(=O)N2CCOC23CCNCC3)cc1 [Compound C0046]
  % DAMGO (0.1 μM): 197.4%
  % DAMGO (1 μM): 211.5%
  % DAMGO + BFNA: 356.4%
  [35S]GTPγS binding, FLNA-Binding Compound as Agonist at 0.1 μM: 286.2%
  [35S]GTPγS binding, FLNA-Binding Compound as Agonist at 1 μM + BFNA: 156.8%
  [35S]GTPγS binding, FLNA-Binding Compound as Agonist at 1 μM: 492.9%

## COc1ccccc1C(=O)CC1c2c(cc3c(c2OC)OCO3)CC[N+]1(C)C (stereo not drawn) [Compound B0025]
  % DAMGO (0.1 μM): 96.3%
  % DAMGO (1 μM): 86.8%
  % DAMGO + BFNA: 211.8%
[1]
  Concentration of FLNA-Binding Compound as Agonist 0.1 μM: 159.6%
[2]
  Concentration of FLNA-Binding Compound as Agonist 1 μM: 234.6%
[3]
  Concentration of FLNA-Binding Compound as Agonist 1 μM + BFNA: 137.7%

## NS(=O)(=O)c1ccc(S(=O)(=O)N2CCC3(CC2)OCCN3S(=O)(=O)c2ccc(S(N)(=O)=O)cc2)cc1 [Compound C0034]
  % DAMGO (0.1 μM): 61.3%
  % DAMGO (1 μM): 76.7%
  % DAMGO + BFNA: 482.5%
  Concentration of FLNA-Binding Compound as Agonist 0.1 μM: 103.6%
  Concentration of FLNA-Binding Compound as Agonist 1 μM: 167.9%
  Concentration of FLNA-Binding Compound as Agonist 1 μM + BFNA: 80.1%

## COc1c2c(cc3c1C(CC(=O)c1cccc(C(F)(F)F)c1)[N+](C)(C)CC3)OCO2 (stereo not drawn) [Compound B0006]
  % DAMGO (0.1 μM): 44.8%
  % DAMGO (1 μM): 47.5%
  % DAMGO + BFNA: 29.0%
[1]
  Concentration of FLNA-Binding Compound as Agonist 0.1 μM: 77.0%
[2]
  Concentration of FLNA-Binding Compound as Agonist 1 μM: 131.3%
[3]
  Concentration of FLNA-Binding Compound as Agonist 1 μM + BFNA: 18.6%

## CC(=O)c1ccc(C(=O)N2CCC3(CC2)OCCN3S(=O)(=O)c2ccc(C(C)=O)cc2)cc1 [Compound C0052]
  % DAMGO (0.1 μM): 74.8%
  % DAMGO (1 μM): 69.9%
  % DAMGO + BFNA: 97.0%
[1]
  Concentration of FLNA-Binding Compound as Agonist 0.1 μM: 108.4%
[2]
  Concentration of FLNA-Binding Compound as Agonist 1 μM: 162.8%
[3]
  Concentration of FLNA-Binding Compound as Agonist 1 μM + BFNA: 42.7%

## O=S(=O)(c1ccc(Cl)cc1)N1CCC2(CC1)OCCN2S(=O)(=O)c1ccc(Cl)cc1 [Compound C0067]
  % DAMGO (0.1 μM): 82.9%
  % DAMGO (1 μM): 81.5%
  % DAMGO + BFNA: 97.1%
[1]
  Concentration of FLNA-Binding Compound as Agonist 0.1 μM: 142.7%
[2]
  Concentration of FLNA-Binding Compound as Agonist 1 μM: 179.0%
[3]
  Concentration of FLNA-Binding Compound as Agonist 1 μM + BFNA: 33.5%

## COc1ccc(S(=O)(=O)N2CCOC23CCCNC3)cc1 (stereo not drawn) [Compound C0145M-3]
  % DAMGO (0.1 μM): 112.2%
  % DAMGO (1 μM): 88.7%
  % DAMGO + BFNA: 95.3%
  [35S]GTPγS binding, FLNA-Binding Compound as Agonist at 0.1 μM: 193.0%
  [35S]GTPγS binding, FLNA-Binding Compound as Agonist at 1 μM + BFNA: 87.0%
  [35S]GTPγS binding, FLNA-Binding Compound as Agonist at 1 μM: 289.2%

## COc1ccc(S(=O)(=O)N2CCOC23CCN(C(C)C)CC3)cc1 [Compound C0133M]
  % DAMGO (0.1 μM): 83.2%
  % DAMGO (1 μM): 96.6%
  % DAMGO + BFNA: 152.4%
  [35S]GTPγS binding, FLNA-Binding Compound as Agonist at 0.1 μM: 139.4%
  [35S]GTPγS binding, FLNA-Binding Compound as Agonist at 1 μM + BFNA: 72.4%
  [35S]GTPγS binding, FLNA-Binding Compound as Agonist at 1 μM: 214.8%

## CCN1CCC2(CC1)OCCN2S(=O)(=O)c1ccc(C(C)=O)cc1 [Compound C0094M]
  % DAMGO (0.1 μM): 100.2%
  % DAMGO (1 μM): 119.9%
  % DAMGO + BFNA: 334.2%
  [35S]GTPγS binding, FLNA-Binding Compound as Agonist at 0.1 μM: 172.5%
  [35S]GTPγS binding, FLNA-Binding Compound as Agonist at 1 μM + BFNA: 115.3%
  [35S]GTPγS binding, FLNA-Binding Compound as Agonist at 1 μM: 263.5%

## O=S(=O)(c1ccc(Br)cc1C(F)(F)F)N1CCC2(CC1)OCCN2S(=O)(=O)c1ccc(Br)cc1C(F)(F)F [Compound C0068]
  % DAMGO (0.1 μM): 53.4%
  % DAMGO (1 μM): 83.8%
  % DAMGO + BFNA: 307.8%
[1]
  Concentration of FLNA-Binding Compound as Agonist 0.1 μM: 107.2%
[2]
  Concentration of FLNA-Binding Compound as Agonist 1 μM: 263.1%
[3]
  Concentration of FLNA-Binding Compound as Agonist 1 μM + BFNA: 165.9%
